PubChem BioAssay AID256 (DTP/NCI, 2004)
Several values for one entry are separate records, joined by “and”; a condition that tells them apart may be missing. Equal entries are not always repeated. Toxic doses and inconclusive results are not listed. The calls were made as follows: active = survival T/C of 150% or more; inactive = T/C below 125% in these data.

System: CD2F1 mice, L1210 leukemia ip, survival T/C
Assay: NCI In Vivo Anticancer Drug Screen. Data for tumor model L1210 Leukemia (intraperitoneal) in CD2F1 (CDF1) mice
Conditions: higher = longer survival
How it was run: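 Mice carrying a transplanted tumor received test compound or vehicle alone. The value is the measurement in the treated group divided by that in the vehicle-treated control group.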

[1] = endpoint: mean survival time, dose: 100.0 mg/kg/injection, schedule: Q01DX001 (ip), vehicle: saline with Tween-80
[2] = endpoint: mean survival time, dose: 100.0 mg/kg/injection, schedule: Q01DX009 (ip), vehicle: saline with Tween-80
[3] = endpoint: mean survival time, dose: 200.0 mg/kg/injection, schedule: Q01DX001 (ip), vehicle: saline with Tween-80
[4] = endpoint: mean survival time, dose: 200.0 mg/kg/injection, schedule: Q01DX009 (ip), vehicle: saline with Tween-80
[5] = endpoint: mean survival time, dose: 400.0 mg/kg/injection, schedule: Q01DX009 (ip), vehicle: saline with Tween-80
[6] = endpoint: mean survival time, dose: 25.0 mg/kg/injection, schedule: Q01DX009 (ip), vehicle: saline with Tween-80
[7] = endpoint: mean survival time, dose: 50.0 mg/kg/injection, schedule: Q01DX009 (ip), vehicle: saline with Tween-80
[8] = endpoint: mean survival time, dose: 100.0 mg/kg/injection, schedule: Q04DX003 (ip), vehicle: saline with Tween-80
[9] = endpoint: mean survival time, dose: 200.0 mg/kg/injection, schedule: Q04DX003 (ip), vehicle: saline with Tween-80
[10] = endpoint: mean survival time, dose: 400.0 mg/kg/injection, schedule: Q04DX003 (ip), vehicle: saline with Tween-80
[11] = endpoint: mean survival time, dose: 100.0 mg/kg/injection, schedule: Q01DX001 (ip), vehicle: saline
[12] = endpoint: mean survival time, dose: 200.0 mg/kg/injection, schedule: Q01DX001 (ip), vehicle: saline
[13] = endpoint: mean survival time, dose: 400.0 mg/kg/injection, schedule: Q01DX001 (ip), vehicle: saline
[14] = endpoint: mean survival time, dose: 100.0 mg/kg/injection, schedule: Q04DX003 (ip), vehicle: saline
[15] = endpoint: mean survival time, dose: 200.0 mg/kg/injection, schedule: Q04DX003 (ip), vehicle: saline
[16] = endpoint: mean survival time, dose: 50.0 mg/kg/injection, schedule: Q01DX009 (ip), vehicle: saline
[17] = endpoint: mean survival time, dose: 100.0 mg/kg/injection, schedule: Q04DX002 (ip), vehicle: saline with Tween-80
[18] = endpoint: mean survival time, dose: 200.0 mg/kg/injection, schedule: Q04DX002 (ip), vehicle: saline with Tween-80
[19] = endpoint: mean survival time, dose: 400.0 mg/kg/injection, schedule: Q04DX002 (ip), vehicle: saline with Tween-80
[20] = endpoint: mean survival time, dose: 100.0 mg/kg/injection, schedule: Q01DX009 (ip), vehicle: saline

Measured: T/C

COc1cc(OC)cc(C(c2nccc3cc(OC)c(OC)cc23)C(O)(C(F)(F)F)C(F)(F)F)c1 (configuration not stated)
inactive: [1] 97 % of control | [2] 90 % of control | [3] 93 % of control | [4] 93 % of control | endpoint: mean survival time, dose: 400.0 mg/kg/injection, schedule: Q01DX001 (ip), vehicle: saline with Tween-80 86 % of control | [5] 89 % of control

COc1cc(/C=C\[N+](=O)[O-])c([N+](=O)[O-])cc1OCc1ccccc1
inactive: [1] 94 % of control | [3] 97 % of control

CC(O)C(NC(=O)c1cnc(=O)[nH]c1N)C(=O)O (configuration not stated)
inactive: [6] 105 % of control | [7] 102 % of control | [2] 102 % of control

O=C(O)c1ccc(S(=O)(=O)N(Cl)Cl)cc1
inactive: [8] 109 % of control | [9] 95 % of control | [10] 95 % of control

O=P1(c2ccccc2)NCC(Br)CO1 (configuration not stated)
inactive: endpoint: mean survival time, dose: 31.3 mg/kg/injection, schedule: Q01DX001 (ip), vehicle: other 95 % of control | endpoint: mean survival time, dose: 62.5 mg/kg/injection, schedule: Q01DX001 (ip), vehicle: other 95 % of control | endpoint: mean survival time, dose: 125.0 mg/kg/injection, schedule: Q01DX001 (ip), vehicle: other 100 % of control | endpoint: mean survival time, dose: 250.0 mg/kg/injection, schedule: Q01DX001 (ip), vehicle: other 100 % of control | endpoint: mean survival time, dose: 500.0 mg/kg/injection, schedule: Q01DX001 (ip), vehicle: other 95 % of control

BrCc1c2ccccc2c(CBr)c2c1ccc1ccccc12
inactive: endpoint: mean survival time, dose: 25.0 mg/kg/injection, schedule: Q04DX002 (ip), vehicle: carboxymethylcellulose (CMC) 105 % of control | endpoint: mean survival time, dose: 50.0 mg/kg/injection, schedule: Q04DX002 (ip), vehicle: carboxymethylcellulose (CMC) 117 % of control | endpoint: mean survival time, dose: 100.0 mg/kg/injection, schedule: Q04DX002 (ip), vehicle: Klucel (hydroxypropylcellulose) (HPC) 97 % of control | endpoint: mean survival time, dose: 100.0 mg/kg/injection, schedule: Q04DX002 (ip), vehicle: carboxymethylcellulose (CMC) 113 % of control | endpoint: mean survival time, dose: 200.0 mg/kg/injection, schedule: Q04DX002 (ip), vehicle: Klucel (hydroxypropylcellulose) (HPC) 117 % of control

C=CCC1(C)C(OC(C)=O)/C(=C\c2ccco2)CC2(C)c3cc(OC)ccc3CCC21 (configuration not stated)
inactive: [11] 101 % of control | [12] 96 % of control | [13] 96 % of control

Cc1ccc(Nc2nc(N)nc(N)c2N=O)cc1C
inactive: endpoint: mean survival time, dose: 50.0 mg/kg/injection, schedule: Q01DX001 (ip), vehicle: Klucel (hydroxypropylcellulose) (HPC) 90 % of control | endpoint: mean survival time, dose: 100.0 mg/kg/injection, schedule: Q01DX001 (ip), vehicle: Klucel (hydroxypropylcellulose) (HPC) 87 % of control | endpoint: mean survival time, dose: 200.0 mg/kg/injection, schedule: Q01DX001 (ip), vehicle: Klucel (hydroxypropylcellulose) (HPC) 98 % of control

O=C(O)C1OC1c1ccccc1 (configuration not stated)
inactive: [2] 107 % of control | [14] 91 % of control | [4] 98 % of control | [15] 100 % of control | [5] 101 % of control | endpoint: mean survival time, dose: 400.0 mg/kg/injection, schedule: Q04DX003 (ip), vehicle: saline 97 % of control

CN(Cc1cnc2nc(N)nc(N)c2n1)c1ccc(C(=O)NC(CCC(=O)O)C(=O)O)cc1Br (configuration not stated)
inactive: endpoint: mean survival time, dose: 6.25 mg/kg/injection, schedule: Q01DX Z (ip), vehicle: saline 104 % of control

COC(=O)C1CCC[N+](C)(C)C1 (configuration not stated)
inactive: endpoint: mean survival time, dose: 25.0 mg/kg/injection, schedule: Q01DX009 (ip), vehicle: saline 100 % of control | [16] 93 % of control

COc1cc(C(=O)C[n+]2ccccc2)ccc1O
inactive: [7] 103 % of control | [2] 87 % of control | [4] 96 % of control

Cc1ccc(N=Cc2cc(I)cc(I)c2O)cc1.Cc1ccc(N=Cc2cc(I)cc(I)c2O)cc1.[Co]
inactive: endpoint: mean survival time, dose: 50.0 mg/kg/injection, schedule: Q04DX003 (ip), vehicle: saline 87 % of control | [14] 104 % of control | [15] 96 % of control

COc1cccc(CC2NCCc3c2[nH]c2ccccc32)c1 (configuration not stated)
inactive: endpoint: mean survival time, dose: 25.0 mg/kg/injection, schedule: Q01DX001 (ip), vehicle: saline with Tween-80 98 % of control | endpoint: mean survival time, dose: 50.0 mg/kg/injection, schedule: Q01DX001 (ip), vehicle: saline with Tween-80 90 % of control | [1] 87 % of control

CC(=O)OC1CCC2(C)C(CCC3(C)C2CC=C2C4CC(C)(C)CCC4(C)CCC23C)C1(C)C (configuration not stated)
inactive: [11] 101 % of control | [12] 101 % of control | [13] 101 % of control

COC(=O)[CH](C[N+](=O)[O-])[Hg][Cl] (configuration not stated)
inactive: endpoint: mean survival time, dose: 6.25 mg/kg/injection, schedule: Q01DX009 (ip), vehicle: saline with Tween-80 97 % of control | endpoint: mean survival time, dose: 12.5 mg/kg/injection, schedule: Q04DX003 (ip), vehicle: saline 94 % of control

CCCCCCCCCCCCNC(=O)C[N+](C)(C)Cc1ccc2c(c1)CCCC2
inactive: endpoint: mean survival time, dose: 5.0 mg/kg/injection, schedule: Q04DX003 (ip), vehicle: saline with Tween-80 95 % of control | endpoint: mean survival time, dose: 10.0 mg/kg/injection, schedule: Q04DX003 (ip), vehicle: saline with Tween-80 105 % of control

O=C1OC2C(Cl)CC(Cl)CC2C=C1c1cccc([N+](=O)[O-])c1 (configuration not stated)
inactive: [2] 90 % of control | [17] 90 % of control | [4] 94 % of control | [18] 90 % of control | [5] 105 % of control | [19] 94 % of control

CCCCC(=O)OCC[N+](C)(C)C
inactive: [17] 100 % of control | [18] 95 % of control | [19] 91 % of control

CCCCCCCCOC(=O)c1cc([N+](=O)[O-])c(Cl)c([N+](=O)[O-])c1
inactive: [6] 106 % of control | endpoint: mean survival time, dose: 25.0 mg/kg/injection, schedule: Q04DX003 (ip), vehicle: saline with Tween-80 103 % of control | [7] 101 % of control | endpoint: mean survival time, dose: 50.0 mg/kg/injection, schedule: Q04DX003 (ip), vehicle: saline with Tween-80 109 % of control | [2] 87 % of control | [8] 91 % of control and 98 % of control

Cc1c2[nH]c(c1CCC(=O)O)/C=c1\[n-]/c(c(C)c1CCC(=O)O)=C\c1[n-]c(c(C)c1C(C)O)/C=c1\[nH]/c(c(C)c1C(C)O)=C\2.[Cl][Pt+2][Cl] (configuration not stated)
inactive: endpoint: mean survival time, dose: 12.5 mg/kg/injection, schedule: Q04DX003 (ip), vehicle: Klucel (hydroxypropylcellulose) (HPC) 88 % of control | endpoint: mean survival time, dose: 25.0 mg/kg/injection, schedule: Q04DX003 (ip), vehicle: Klucel (hydroxypropylcellulose) (HPC) 90 % of control | endpoint: mean survival time, dose: 50.0 mg/kg/injection, schedule: Q04DX003 (ip), vehicle: Klucel (hydroxypropylcellulose) (HPC) 93 % of control | endpoint: mean survival time, dose: 100.0 mg/kg/injection, schedule: Q04DX003 (ip), vehicle: Klucel (hydroxypropylcellulose) (HPC) 88 % of control

COc1ccc(NC(=O)Nc2c(Oc3ccc(Cl)cc3)ccc(Cl)c2S(=O)(=O)O)cc1Cl
inactive: [16] 98 % of control | [20] 87 % of control | [8] 93 % of control | [9] 91 % of control

CCOC(=O)c1cnn(C)c1N
inactive: [11] 103 % of control | [8] 102 % of control | [12] 103 % of control | [9] 102 % of control | [13] 97 % of control | [10] 104 % of control

CO[C@@H]1C2=CC=CC=C[C@H]2n2c(=O)n(C)c(=O)n21
inactive: endpoint: median survival time, dose: 37.5 mg/kg/injection, schedule: Q01DX005 (ip), vehicle: other 95 % of control | endpoint: median survival time, dose: 75.0 mg/kg/injection, schedule: Q01DX005 (ip), vehicle: other 100 % of control | endpoint: median survival time, dose: 150.0 mg/kg/injection, schedule: Q01DX005 (ip), vehicle: other 95 % of control

O=C(Nc1ccc(N=C=S)cc1Cl)c1cc(Cl)cc(Cl)c1O
inactive: endpoint: mean survival time, dose: 6.25 mg/kg/injection, schedule: Q01DX009 (ip), vehicle: Klucel (hydroxypropylcellulose) (HPC) 91 % of control and 104 % of control | endpoint: mean survival time, dose: 12.5 mg/kg/injection, schedule: Q01DX009 (ip), vehicle: Klucel (hydroxypropylcellulose) (HPC) 97 % of control | endpoint: mean survival time, dose: 25.0 mg/kg/injection, schedule: Q01DX009 (ip), vehicle: Klucel (hydroxypropylcellulose) (HPC) 96 % of control and 109 % of control | endpoint: mean survival time, dose: 50.0 mg/kg/injection, schedule: Q01DX009 (ip), vehicle: Klucel (hydroxypropylcellulose) (HPC) 113 % of control and 103 % of control | endpoint: mean survival time, dose: 100.0 mg/kg/injection, schedule: Q01DX009 (ip), vehicle: Klucel (hydroxypropylcellulose) (HPC) 97 % of control

Cn1c2c(c3ccccc31)CCCC2=O
inactive: [11] 106 % of control | [12] 97 % of control | [13] 93 % of control

CC12CCC(=O)C=C1CCCC2=O (configuration not stated)
inactive: [16] 98 % of control | [20] 96 % of control
